Experimental data taken from PubChem BioAssay (NCI).
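Five concentrations, 48 hours, 96-well plates. GI50 = concentration required for 50% inhibition of growth. At the TGI there is no net growth.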

Assays:
Test in all cases: NCI-60 cell line screen, 48 h
OVCAR-4 ovarian = tested on: OVCAR-4 ovarian
KM12 colon = tested on: KM12 colon
SNB-19 CNS = tested on: SNB-19 CNS
HOP-62 NSCLC = tested on: HOP-62 NSCLC
HCC-2998 colon = tested on: HCC-2998 colon
NCI-H226 lung = tested on: NCI-H226 lung
SK-OV-3 ovarian = tested on: SK-OV-3 ovarian
RPMI-8226 leukemia = tested on: RPMI-8226 leukemia
IGROV1 ovarian = tested on: IGROV1 ovarian
LOX IMVI melanoma = tested on: LOX IMVI melanoma

Compound	TGI (OVCAR-4 ovarian)	TGI (KM12 colon)	TGI (SNB-19 CNS)	TGI (HOP-62 NSCLC)	TGI (HCC-2998 colon)	TGI (NCI-H226 lung)	TGI (SK-OV-3 ovarian)	TGI (RPMI-8226 leukemia)	TGI (IGROV1 ovarian)	TGI (LOX IMVI melanoma)	GI50 (OVCAR-4 ovarian)	GI50 (KM12 colon)	GI50 (HCC-2998 colon)	GI50 (SK-OV-3 ovarian)	GI50 (IGROV1 ovarian)	GI50 (LOX IMVI melanoma)	GI50 (SNB-19 CNS)	GI50 (HOP-62 NSCLC)	GI50 (NCI-H226 lung)	GI50 (RPMI-8226 leukemia)
Cc1c(C#N)c2nnn(C)c(=O)n2c1-c1ccccc1	> 100 µM	> 100 µM	> 100 µM	> 100 µM	> 100 µM	> 100 µM	> 100 µM	> 100 µM												
Fc1c(F)c(C(F)(F)F)c(F)c(F)c1N/N=C\c1c[nH]c2ccccc12	6.72 µM	4.06 µM	12 µM	4.16 µM	4.19 µM		12.9 µM	10.2 µM	10.4 µM	12.1 µM										
CN(C)c1ccc(/C=C/C=C\C2=CC(=C\C=C/C=C3C=CC(=[N+](C)C)C=C3)/Sc3ccccc32)cc1		> 100 µM	> 100 µM	> 100 µM		> 100 µM	> 100 µM	> 100 µM		64.1 µM										
COc1cc2c(/C=C3/C(=O)Nc4ccc(Cl)cc43)c(Cl)n(Cc3ccccc3)c2cc1C		5.64 µM	8.98 µM			9.61 µM	4.41 µM	6.9 µM	13.4 µM	> 100 µM										
COc1ccc(-c2ccc(-c3ccc(C(=N)N)nc3)s2)cc1	3.3 µM	3.3 µM			3.41 µM		3.23 µM				1.79 µM	1.81 µM	1.82 µM	1.7 µM						
CC(=O)OCC(=O)[C@@]1(O)CC[C@H]2[C@@H]3CCC4=CC(=O)[C@H](C)C[C@]4(C)[C@H]3[C@@H](O)C[C@@]21C	> 100 µM	> 100 µM	> 100 µM	> 100 µM	> 100 µM	> 100 µM	> 100 µM	> 100 µM	> 100 µM	> 100 µM										
COc1ccc(/C=C2\OC(=O)C(Cl)=C2c2ccc(OC)cc2)cc1	> 100 µM	> 100 µM	> 100 µM	> 100 µM			> 100 µM	> 100 µM	> 100 µM	> 100 µM										
O=S(=O)([O-])[O-].[Fe+2].c1ccc(/C(=N\Nc2ccccn2)c2ccccn2)cc1	2.96 µM	14.6 µM	15.4 µM	12 µM	16.2 µM	4.37 µM	4.25 µM	12.4 µM	5.46 µM	11.8 µM										
O=C(NO)c1ccc([N+](=O)[O-])cc1		> 100 µM	> 100 µM	> 100 µM	> 100 µM	> 100 µM	> 100 µM	> 100 µM	> 100 µM	> 100 µM										
COc1ccc2c(c1)CC[C@@H]1[C@@H]2CC[C@]2(C)C(=O)C3(CCCCC3)C[C@@H]12	> 100 µM	> 100 µM	> 100 µM	> 100 µM	> 100 µM	> 100 µM	> 100 µM	> 100 µM	> 100 µM	> 100 µM	> 100 µM	> 100 µM	> 100 µM	> 100 µM	> 100 µM	> 100 µM	> 100 µM	> 100 µM	> 100 µM	> 100 µM
